Key:
MOLT-4 cells = test: AlamarBlue cell growth inhibition, MOLT-4; assay type: cell-based; settings: Homo sapiens, 120 h; for IC50: MOLT-4, five days, read-out: IC50 (sensitivity); for EC50: Molt-4 (Bcl-2 +, BTK −), 5 days, read-out: Inhibitory effects (EC50)
Experimental: (§1) K-562 cells (human leukemia) were purchased from ATCC (Manassas, USA). Additional human leukemic cell lines, MOLT-4 and HL-60, were a generous gift from Carrie Cummings at Fred Hutchinson Cancer Research Center (Seattle, USA). All cells were cultured in Gibco RPMI medium 1640 with Gibco 1% 100×Antibiotic-Antimycotic (Thermo Fisher Scientific, Waltham, USA) and 10% fetal bovine serum. Cells were selected for their different protein expression levels of Bruton's Tyrosine Kinase (BTK) and B Cell Lymphoma 2 (Bcl-2); HL-60 cells express both BTK and Bcl-2, while K-562 and MOLT-4 cells only express BTK and Bcl-2, respectively.
(§2) Each cell line was seeded separately into Costar® Black 96-well Assay Plates (Corning USA). Within 1 hr, varying concentrations of individual free drug (ABT-199 or BGB-3111), a combination of both free drugs (w/w 1:1), or a combination of drugs within DcNP's were added to the cells. Following a 5-day incubation, growth of treated cells was compared to untreated cells, quantified using an AlamarBlue Cell Viability Assay (Thermo Fisher Scientific, Waltham, USA) with a PerkinElmer 1420 Multilabel Counter plate reader. Prism graphing software (GraphPad) was used to analyze the absorbance data and to assess relative cell growth.
(§3) The effects of DcNP formulation on the effectiveness of ABT-199 and BGB-3111 to inhibit cells that express Bcl-2 and BTK targets is shown in Table 6. Three immortalized human cell lines were selected based on their expression of Bcl-2 (B-cell lymphoma 2; target of venetoclax) and BTK (Bruton's tyrosine kinase; target of zanubrutinib). Cell lines were seeded in 96-well plates at 75,000 cells per well. In separate sets of wells, venetoclax and zanubrutinib were incubated with the cells for 5 days individually as free drug, together as free drug, and together as the drug combination nanoformulation. An AlamarBlue assay was performed to determine relative inhibition of cell growth due to drug presence.

[1] = Pharmacokinetics of venetoclax-zanubrutinib DcNP's versus free drug in mice; assay type: in vivo, BALB/C mice; settings: for AUC: female, BALB/C, mouse, plasma; for time detectable in plasma: following administration of the nanoparticles
From the text: To quantify drug concentrations (both DcNP-bound and free drug), an extraction protocol was established to quantify venetoclax and zanubrutinib. In short, drug was solubilized by diluting the sample into ethyl acetate, liberating it from either the DcNP lipid matrix, mouse plasma, or both. Following centrifugation to remove organic material, the samples were dried with nitrogen gas, reconstituted in acetonitrile, and loaded onto an LC-MS/MS. Drug concentrations were quantified by comparing sample data with standard curves prepared from untreated mouse plasma spiked with known amounts of drug.
Separations were carried out on a Synergi column (100×2.0 mm) (Phenomenex, Torrance, USA). A C8 guard column (4.0×2.0 mm) was used (Phenomenex, USA). The separations were done under ambient temperature, and the flow rate was set to 0.55 ml/min. The mobile phase for the separations consisted of buffers A (water with 20 mM ammonium acetate) and B (acetonitrile). The single mobile phase ran for five minutes, and it consisted of 25% buffer A and 75% buffer B.
All animal procedures complied with and were approved by the University of Washington Institutional Animal Care and Use Committee. Female BALB/C mice were used, originally obtained from Charles River Laboratories (Wilmington, Mass.). Mice were kept under pathogen-free conditions, exposed to a 12 h light/dark cycle, and received food ad libitum. Three groups of three mice each were administered ABT-199 and BGB-3111: (1) the first group received a 180 μL intravenous injection of 600 μg ABT-199 and 600 μg BGB-3111 in 0.9% NaCl, 20 mM NaHCO3 buffer with trace DMSO and Cremophor EL as solubilizing agents, (2) the second group received an intravenous injection of ABT-199 and BGB-3111 DcNP's in equivalent volume and drug molar concentration as the first group, and (3) the third group received a subcutaneous injection of ABT-199 and BGB-3111 DcNP's in the inner right leg. Plasma was collected at select time points, then extracted and analyzed by HPLC-MS/MS using the previously established protocol to determine plasma concentrations of drug over time.

K-562 cells = test: AlamarBlue cell growth inhibition, K-562; assay type: cell-based; settings: Homo sapiens; for EC50: 120 h, K562 (Bcl-2 −, BTK +), 5 days, read-out: Inhibitory effects (EC50); for IC50: K562, 120 h, K-562, five days, read-out: IC50 (sensitivity)
Experimental: as §1, §2, §3

[2] = iv, 600 ug, intravenous free drug injection (600 μg each drug)
[3] = iv, 600 ug, intravenously administered DcNP's
[4] = sc, subcutaneous injection of DcNP's, plasma over one week

| IC50 (MOLT-4 cells) | EC50 (MOLT-4 cells) | AUC of subcutaneous DcNP's compared to intravenously delivered free drug (ratio) [1] | AUC [1, 2] | AUC [1, 3] | AUC [1, 4] | time detectable in plasma [1] | EC50 (K-562 cells) | IC50 (K-562 cells) | SMILES |
| --- | --- | --- | --- | --- | --- | --- | --- | --- | --- |
| 1.96 µg/mL | 2 µg/mL | over 2.62 | 88800 ng·h/mL | 216000 ng·h/mL | 232000 ng·h/mL | up to seven days | 16 µg/mL | 15.9 µg/mL | CC1(C)CCC(CN2CCN(c3ccc(C(=O)NS(=O)(=O)c4ccc(NCC5CCOCC5)c([N+](=O)[O-])c4)c(Oc4cnc5[nH]ccc5c4)c3)CC2)=C(c2ccc(Cl)cc2)C1 [Venetoclax, 4-[4-[[2-(4-chlorophenyl)-4,4-dimethylcyclohexen-1-yl]methyl]piperazin-1-yl]-N-[3-nitro-4-(oxan-4-ylmethylamino)phenyl]sulfonyl-2-(1H-pyrrolo[2,3-b]pyridin-5-yloxy)benzamide] |
| 4 µg/mL | 4 µg/mL | > 5.92 | 8300 ng·h/mL | 11300 ng·h/mL | 49000 ng·h/mL | less than one day | 8.4 µg/mL | 8.3 µg/mL | C=CC(=O)N1CCC([C@@H]2CCNc3c(C(N)=O)c(-c4ccc(Oc5ccccc5)cc4)nn32)CC1 [Zanubrutinib, (7S)-2-(4-phenoxyphenyl)-7-(1-prop-2-enoylpiperidin-4-yl)-4,5,6,7-tetrahydropyrazolo[1,5-a]pyrimidine-3-carboxamide] |
